Results: the supplement of paper PMC6315032

How the values were obtained:
Experiment in all cases: apparent dissociation constant (pKDapp, Kinobeads competition, Cheng-Prusoff corrected) (-log10 M); higher = tighter binding
Details in all cases: affinity matrix / lysate: Kinobeads, mixed HEK293/K-562/placenta lysate
[1] = target: PFTK1 (UniProt O94921)
[2] = target: NUAK1 (UniProt O60285)
[3] = target: EPHB6 (UniProt O15197)
[4] = target: BTK (UniProt Q06187)
[5] = target: MINK1 (UniProt Q8N4C8)
[6] = target: CDC2L5 (UniProt Q14004)
[7] = target: PRKCB (UniProt P05771)
[8] = target: MST1R (UniProt Q04912)
[9] = target: PRKCD (UniProt Q05655)
[10] = target: MARK2 (UniProt Q7KZI7)
[11] = target: RPS6KA3 (UniProt P51812)
[12] = target: ERBB4 (UniProt Q15303)
[13] = target: BMPR1A (UniProt P36894)
[14] = target: MAP3K1 (UniProt Q13233)
[15] = target: AKT1 (UniProt P31749)
[16] = target: MAP4K3 (UniProt Q8IVH8)
[17] = target: DYRK1A (UniProt Q13627)
[18] = target: CDC7 (UniProt O00311)
[19] = target: MAPK14 (UniProt Q16539)
[20] = target: PTK2B (UniProt Q14289)
[21] = target: WEE1 (UniProt P30291)
[22] = target: HIPK1 (UniProt Q86Z02)
[23] = target: FGFR2 (UniProt P21802)
[24] = target: FER (UniProt P16591)
[25] = target: PCTK3 (UniProt Q07002)
[26] = target: RPS6KA2 (UniProt Q15349)
[27] = target: NEK9 (UniProt Q8TD19)
[28] = target: MAPK11 (UniProt Q15759)
[29] = target: CABC1 (UniProt Q8NI60)
[30] = target: TEC (UniProt P42680)
[31] = target: MASTL (UniProt Q96GX5)
[32] = target: STK38L (UniProt Q9Y2H1)
[33] = target: TAOK3 (UniProt Q9H2K8)
[34] = target: FGFR3 (UniProt P22607)

Measured: apparent dissociation constant (-log10 M)

Sequence of WEE1 (P30291 whole entry, looked up): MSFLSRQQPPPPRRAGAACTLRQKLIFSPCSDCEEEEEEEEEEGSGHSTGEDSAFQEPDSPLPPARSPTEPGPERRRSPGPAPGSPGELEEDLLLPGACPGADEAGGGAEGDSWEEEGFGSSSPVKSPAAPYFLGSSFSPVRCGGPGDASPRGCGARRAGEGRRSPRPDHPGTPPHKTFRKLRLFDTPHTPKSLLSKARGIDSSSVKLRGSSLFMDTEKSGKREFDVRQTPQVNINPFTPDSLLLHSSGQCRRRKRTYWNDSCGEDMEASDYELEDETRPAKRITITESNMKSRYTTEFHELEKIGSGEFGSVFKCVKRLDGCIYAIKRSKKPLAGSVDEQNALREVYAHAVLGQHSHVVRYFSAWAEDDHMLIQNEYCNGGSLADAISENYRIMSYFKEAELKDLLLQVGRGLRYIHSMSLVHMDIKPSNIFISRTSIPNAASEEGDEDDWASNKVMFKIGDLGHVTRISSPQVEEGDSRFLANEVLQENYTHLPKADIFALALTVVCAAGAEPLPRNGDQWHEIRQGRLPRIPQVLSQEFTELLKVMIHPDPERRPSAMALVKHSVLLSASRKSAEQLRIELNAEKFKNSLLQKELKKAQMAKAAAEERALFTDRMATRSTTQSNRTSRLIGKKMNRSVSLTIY
Sequence of BMPR1A (P36894 whole entry): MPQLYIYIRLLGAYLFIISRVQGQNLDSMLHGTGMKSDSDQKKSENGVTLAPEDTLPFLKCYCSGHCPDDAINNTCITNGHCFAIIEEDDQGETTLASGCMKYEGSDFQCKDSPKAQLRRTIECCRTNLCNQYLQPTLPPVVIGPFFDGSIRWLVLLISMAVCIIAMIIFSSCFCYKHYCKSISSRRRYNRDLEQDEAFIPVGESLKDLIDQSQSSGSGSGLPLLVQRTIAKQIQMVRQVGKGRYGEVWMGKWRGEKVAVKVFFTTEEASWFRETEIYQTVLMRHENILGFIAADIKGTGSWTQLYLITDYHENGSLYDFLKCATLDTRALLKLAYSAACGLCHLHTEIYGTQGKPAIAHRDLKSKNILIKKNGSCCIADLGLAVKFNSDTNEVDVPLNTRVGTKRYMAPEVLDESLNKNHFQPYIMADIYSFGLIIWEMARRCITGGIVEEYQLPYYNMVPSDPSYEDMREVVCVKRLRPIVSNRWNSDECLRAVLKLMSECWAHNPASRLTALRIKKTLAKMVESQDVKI
Sequence of HIPK1 (Q86Z02 whole entry, looked up): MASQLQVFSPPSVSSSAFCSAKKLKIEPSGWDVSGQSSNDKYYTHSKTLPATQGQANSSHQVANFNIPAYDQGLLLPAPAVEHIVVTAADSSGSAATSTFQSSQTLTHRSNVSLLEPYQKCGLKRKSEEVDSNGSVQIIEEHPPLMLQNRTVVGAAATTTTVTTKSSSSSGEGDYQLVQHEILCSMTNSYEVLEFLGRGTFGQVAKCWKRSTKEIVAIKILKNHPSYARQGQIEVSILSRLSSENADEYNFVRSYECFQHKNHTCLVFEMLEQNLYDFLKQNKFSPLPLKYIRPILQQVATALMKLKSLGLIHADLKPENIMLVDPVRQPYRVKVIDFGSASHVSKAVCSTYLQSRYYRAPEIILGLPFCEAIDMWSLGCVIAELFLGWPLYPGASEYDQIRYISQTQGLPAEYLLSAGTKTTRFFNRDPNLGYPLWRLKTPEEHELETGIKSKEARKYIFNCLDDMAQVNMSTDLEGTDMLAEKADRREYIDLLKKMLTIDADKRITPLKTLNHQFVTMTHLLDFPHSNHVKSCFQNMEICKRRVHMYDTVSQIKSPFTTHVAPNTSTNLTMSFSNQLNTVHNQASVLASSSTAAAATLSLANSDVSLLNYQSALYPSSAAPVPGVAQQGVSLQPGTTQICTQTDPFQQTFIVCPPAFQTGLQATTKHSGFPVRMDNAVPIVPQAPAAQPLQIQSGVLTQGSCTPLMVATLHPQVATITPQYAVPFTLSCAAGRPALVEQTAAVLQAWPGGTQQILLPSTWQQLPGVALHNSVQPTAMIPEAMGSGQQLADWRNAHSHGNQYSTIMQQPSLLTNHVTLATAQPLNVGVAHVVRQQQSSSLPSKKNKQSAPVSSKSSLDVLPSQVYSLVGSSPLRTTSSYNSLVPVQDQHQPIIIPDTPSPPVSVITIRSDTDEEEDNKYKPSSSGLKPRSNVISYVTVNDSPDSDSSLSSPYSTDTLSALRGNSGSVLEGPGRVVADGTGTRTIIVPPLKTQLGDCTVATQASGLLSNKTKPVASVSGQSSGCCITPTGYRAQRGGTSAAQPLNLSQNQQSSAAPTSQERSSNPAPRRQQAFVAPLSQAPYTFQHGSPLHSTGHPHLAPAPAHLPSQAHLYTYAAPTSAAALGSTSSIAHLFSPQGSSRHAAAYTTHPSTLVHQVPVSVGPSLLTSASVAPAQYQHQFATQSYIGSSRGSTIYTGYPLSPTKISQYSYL
Sequence of FGFR3 (P22607 whole entry, looked up): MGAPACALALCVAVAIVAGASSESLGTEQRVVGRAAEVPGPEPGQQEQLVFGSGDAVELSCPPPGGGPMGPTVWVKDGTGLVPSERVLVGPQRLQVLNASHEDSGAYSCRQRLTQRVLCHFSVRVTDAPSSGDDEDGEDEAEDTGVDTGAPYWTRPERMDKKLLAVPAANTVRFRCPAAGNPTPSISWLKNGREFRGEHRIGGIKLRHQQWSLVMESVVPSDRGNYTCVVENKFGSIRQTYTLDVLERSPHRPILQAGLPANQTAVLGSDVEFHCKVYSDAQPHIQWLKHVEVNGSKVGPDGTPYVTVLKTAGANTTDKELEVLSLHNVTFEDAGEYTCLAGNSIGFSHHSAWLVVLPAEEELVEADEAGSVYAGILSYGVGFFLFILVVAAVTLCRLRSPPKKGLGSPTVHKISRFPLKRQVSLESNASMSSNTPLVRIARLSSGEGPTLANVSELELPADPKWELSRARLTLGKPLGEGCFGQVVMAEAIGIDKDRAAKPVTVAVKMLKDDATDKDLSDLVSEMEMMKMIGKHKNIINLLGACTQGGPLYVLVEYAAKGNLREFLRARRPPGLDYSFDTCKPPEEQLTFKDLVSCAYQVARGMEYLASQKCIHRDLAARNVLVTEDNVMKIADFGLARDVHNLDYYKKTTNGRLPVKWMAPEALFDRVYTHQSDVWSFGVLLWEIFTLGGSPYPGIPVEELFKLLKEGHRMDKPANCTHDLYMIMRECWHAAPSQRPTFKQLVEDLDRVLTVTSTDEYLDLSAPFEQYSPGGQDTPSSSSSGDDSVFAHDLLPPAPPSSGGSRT
Sequence of PFTK1 (O94921 whole entry): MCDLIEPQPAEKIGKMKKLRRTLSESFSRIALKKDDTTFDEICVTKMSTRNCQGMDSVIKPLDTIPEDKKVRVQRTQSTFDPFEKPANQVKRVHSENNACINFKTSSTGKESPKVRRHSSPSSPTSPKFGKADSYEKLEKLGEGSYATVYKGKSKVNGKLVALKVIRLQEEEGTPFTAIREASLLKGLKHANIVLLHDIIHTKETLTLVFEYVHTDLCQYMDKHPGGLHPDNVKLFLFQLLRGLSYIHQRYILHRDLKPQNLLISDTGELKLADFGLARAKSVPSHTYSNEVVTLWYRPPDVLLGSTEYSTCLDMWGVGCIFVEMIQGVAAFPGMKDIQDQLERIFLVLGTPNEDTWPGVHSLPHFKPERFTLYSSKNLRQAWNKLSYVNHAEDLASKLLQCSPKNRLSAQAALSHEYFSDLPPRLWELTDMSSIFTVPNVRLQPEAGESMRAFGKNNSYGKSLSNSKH
Sequence of PCTK3 (Q07002 whole entry): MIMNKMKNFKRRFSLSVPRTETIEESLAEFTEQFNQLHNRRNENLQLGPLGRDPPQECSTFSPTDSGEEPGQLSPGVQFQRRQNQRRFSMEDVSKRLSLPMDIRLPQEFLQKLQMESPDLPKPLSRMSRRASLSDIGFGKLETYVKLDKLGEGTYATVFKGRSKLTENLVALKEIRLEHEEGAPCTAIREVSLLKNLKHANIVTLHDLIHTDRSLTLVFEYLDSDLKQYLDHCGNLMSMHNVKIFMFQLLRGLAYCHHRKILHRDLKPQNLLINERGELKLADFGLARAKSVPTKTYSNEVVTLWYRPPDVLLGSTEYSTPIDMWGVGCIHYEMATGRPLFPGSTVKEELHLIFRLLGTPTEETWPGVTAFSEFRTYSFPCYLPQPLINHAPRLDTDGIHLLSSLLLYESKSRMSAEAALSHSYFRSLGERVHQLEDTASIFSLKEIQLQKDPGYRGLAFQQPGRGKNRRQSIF
Sequence of MARK2 (Q7KZI7 whole entry): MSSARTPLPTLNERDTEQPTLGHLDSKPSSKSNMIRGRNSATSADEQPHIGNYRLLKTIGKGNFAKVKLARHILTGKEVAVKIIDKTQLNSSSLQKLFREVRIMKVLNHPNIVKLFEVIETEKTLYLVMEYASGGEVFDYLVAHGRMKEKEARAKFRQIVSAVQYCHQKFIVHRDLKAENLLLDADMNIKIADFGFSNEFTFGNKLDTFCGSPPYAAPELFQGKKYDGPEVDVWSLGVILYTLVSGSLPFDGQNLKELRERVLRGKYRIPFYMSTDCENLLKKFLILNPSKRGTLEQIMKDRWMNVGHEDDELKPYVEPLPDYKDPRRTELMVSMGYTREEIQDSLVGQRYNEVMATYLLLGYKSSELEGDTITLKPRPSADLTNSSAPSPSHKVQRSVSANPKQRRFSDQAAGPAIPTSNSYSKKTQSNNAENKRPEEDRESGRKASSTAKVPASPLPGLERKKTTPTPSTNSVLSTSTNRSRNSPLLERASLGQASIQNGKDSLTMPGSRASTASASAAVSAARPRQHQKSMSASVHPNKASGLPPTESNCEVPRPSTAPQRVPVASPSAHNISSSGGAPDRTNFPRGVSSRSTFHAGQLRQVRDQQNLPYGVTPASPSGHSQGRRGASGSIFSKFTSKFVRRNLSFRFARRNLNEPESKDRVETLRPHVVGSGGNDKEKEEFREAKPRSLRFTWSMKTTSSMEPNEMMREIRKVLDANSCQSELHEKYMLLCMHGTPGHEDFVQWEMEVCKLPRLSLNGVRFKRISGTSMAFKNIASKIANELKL

COc1ccc(-c2ccc3c(N4CCOC[C@@H]4C)nc(N4CCOC[C@@H]4C)nc3n2)cc1CO [AZD8055]
< 6: all assays above

CCNC(=O)Nc1ccc(-c2nc(N3CCOC[C@@H]3C)c3c(n2)C(C)(C)S(=O)(=O)C3)cc1 [CZ415]
< 6: all assays above
